± gives the expanded uncertainty stated by the source.
Test: molar heat capacity at constant pressure
Details: 101.33 kPa, Crystal, Small (less than 1 g) adiabatic calorimetry

O=C([O][Sb]([c]1ccccc1)([c]1ccccc1)([c]1ccccc1)[c]1ccccc1)c1ccccc1 [tetraphenylantimony benzoate]
Details	molar heat capacity at constant pressure [J/K/mol]
5 K	1.72 ± 0.083
5.54 K	2.34 ± 0.11
5.81 K	2.55 ± 0.12
6.27 K	3.24 ± 0.14
6.56 K	3.56 ± 0.16
6.92 K	4.25 ± 0.18
7.71 K	5.93 ± 0.26
7.98 K	6.39 ± 0.27
8.34 K	7.12 ± 0.31
8.69 K	7.77 ± 0.33
9.05 K	8.56 ± 0.33
9.58 K	9.73 ± 0.42
10 K	10.9 ± 0.5
10.05 K	10.9 ± 0.5
10.43 K	12 ± 0.5
10.82 K	13.1 ± 0.58
11.21 K	14.2 ± 0.58
11.44 K	14.8 ± 0.58
11.66 K	15.5 ± 0.67
12.08 K	16.7 ± 0.67
12.66 K	18.5 ± 0.75
13.36 K	20.5 ± 0.83
14.03 K	22.5 ± 0.91
14.57 K	24.4 ± 1
15 K	25.6 ± 1.1
15.26 K	26.4 ± 0.42
15.94 K	28.6 ± 0.42
16.62 K	30.87 ± 0.44
17.29 K	33.05 ± 0.47
17.96 K	35.26 ± 0.49
18.62 K	37.36 ± 0.52
18.8 K	38.09 ± 0.52
19.31 K	39.63 ± 0.54
19.97 K	41.7 ± 0.56
20 K	41.81 ± 0.57
20.6 K	43.6 ± 0.58
22.51 K	49.65 ± 0.64
25 K	57.77 ± 0.72
25.94 K	60.95 ± 0.75
29.45 K	71.99 ± 0.84
30 K	73.7 ± 0.81
31.45 K	78.36 ± 0.86
33 K	82.85 ± 0.91
33.62 K	84.64 ± 0.91
35 K	88.8 ± 1
35.87 K	91.21 ± 1
36.5 K	93.12 ± 1
40 K	102.8 ± 1.1
40.06 K	103.7 ± 0.58
43 K	111 ± 0.67
45 K	115.8 ± 0.67
46.68 K	120.9 ± 0.67
49.76 K	127.9 ± 0.75
50 K	128 ± 0.75
53.38 K	136.9 ± 0.75
57.02 K	145.6 ± 0.83
60 K	151.4 ± 0.83
60.66 K	154.2 ± 0.91
64.31 K	162 ± 0.91
67.97 K	169.5 ± 0.91
70 K	174.2 ± 1
71.63 K	177 ± 1
75.29 K	185.6 ± 1.1
78 K	192 ± 1.1
80 K	195.9 ± 1.1
82.52 K	200.4 ± 1.1
83.53 K	202.5 ± 1.2
85.67 K	207 ± 1.2
88.37 K	212.3 ± 1.2
90 K	214.8 ± 1.2
90.22 K	215.5 ± 1.2
92.48 K	218.9 ± 1.2
93.76 K	221 ± 1.2
95.63 K	223.7 ± 1.2
99.16 K	228.6 ± 1.2
100 K	229.7 ± 1.2
102.7 K	234 ± 1.2
106.23 K	240 ± 1.2
109.78 K	244.9 ± 1.2
113.32 K	250.2 ± 1.3
116 K	255 ± 1.3
119.8 K	262 ± 1.3
120 K	262 ± 1.3
123.36 K	267.2 ± 1.4
126.75 K	273.3 ± 1.4
128 K	275.2 ± 1.4
132.8 K	282.4 ± 1.5
136 K	287 ± 1.5
139.71 K	293.3 ± 1.5
140 K	293.6 ± 1.5
144.47 K	301.3 ± 1.6
146.16 K	303.1 ± 1.6
151.28 K	310.8 ± 1.6
155 K	315 ± 1.7
158.48 K	321.9 ± 1.7
160 K	324.2 ± 1.7
161 K	326 ± 1.7
164.87 K	332.4 ± 1.7
168.1 K	336.4 ± 1.7
169.28 K	338.2 ± 1.7
172.52 K	344.3 ± 1.7

Reference: the NIST ThermoML archive (doi:10.1016/j.jct.2018.11.011)
